From the METLIN SMRT retention time set (Domingo-Almenara et al. 2019) come the findings set out here.

This series is described as follows: gradient 5% acetonitrile 3 min, to 50% in 2 min, to 85% in 15 min, held 3 min, 100 µL/min. The conditions noted are these: column: Zorbax Extend-C18 2.1 x 50 mm; eluents: water / acetonitrile, 0.1% formic acid. Put shortly:
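Retention times come from adduct peaks that were picked computationally and then checked by hand. The standards, pure and pooled in mixtures of ~100 molecules, were run on a Zorbax Extend-C18 column (2.1 × 50 mm, 1.8 μm) at 100 μL/min with water and acetonitrile, each with 0.1% formic acid. Detection was by quadrupole time-of-flight mass spectrometry in positive and negative ionization mode, with a dead volume of 40 μL and a dwell volume of 900 μL.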
Regarding `CCOC(=O)c1cnc2nc(C)ccc2c1Nc1cccc(F)c1`, the RP-LC retention time was 689 s.

Take `COc1ccc2c(c1)C=C(C(=O)NCc1ccccc1OC)C=CO2`: the RP-LC retention time is 944 s.

The molecule `CCCCN(CCNC(=O)C1CCCN(c2ncnc3c2nc2n3CCCCC2)C1)Cc1ccco1` (stereo not drawn) came in with an RP-LC retention time of 656 s. In the case of `Fc1ccc(F)c(-c2nc(-c3cccc(-c4ccn[nH]4)c3)no2)c1` it was 966 s; in that of `O=C(NCCCN1CCCC1=O)c1ccc(-c2ccc(N3CCSCC3)nc2)cc1`, 619 s. Consider `CSc1ccccc1NC(=O)C(=O)NCC1(c2cccs2)CCCC1`, for which the RP-LC retention time came to 1280 s. In the case of `CCc1noc(NC(C)=O)c1-c1ccc(C)c(S(=O)(=O)NC2CC2)c1` it was 728 s. In the case of `COc1ccc(CC(=O)N2C[C@@H]3C[C@H]2C[C@@H]3NC(=O)c2ccccc2)c(Cl)c1` it was 738 s; in that of `O=C(NC1CCN(c2cc(-c3ccc(Cl)cc3)[nH]n2)C1)c1ccccc1F` (stereo not drawn), 777 s; in that of `CCN(CC)S(=O)(=O)c1ccc2c(c1)CC(C(=O)NCc1ccc(N(C)C)cc1)N2C(C)=O` (stereo not drawn), 669 s.

On to `CCOC(=O)CNC(=O)N1CCc2c([nH]c3ccc(OC)cc23)C1c1ccc(OC)cc1` (stereo not drawn), for which the RP-LC retention time stood at 886 s.

Consider `Cc1cccc(N2CCN(Cc3nc(-c4ccc(N5CCC(C)CC5)nc4)no3)CC2)c1C`, for which the RP-LC retention time worked out at 1280 s.

In turn, `O=C(Cn1c2ccccc2c2ncn(Cc3nc(C4CC4)no3)c(=O)c21)Nc1ccc2c(c1)OCCO2` had an RP-LC retention time of 808 s. For the molecule `COCc1cn(CC2CCCN(Cc3cn(C(C)C)c4ccc(OC)cc34)C2)nn1` (stereo not drawn), the RP-LC retention time was 648 s. Take `COC(=O)c1nnn(-c2ccc(C)cc2)c1C(=O)OC`: the RP-LC retention time was determined as 623 s. Molecule `CCc1nc2cc(N3CCCC(C(=O)NCC4CCCO4)C3)cnc2nc1CC` (stereo not drawn) yielded an RP-LC retention time of 694 s. `Cc1ccc2c(Nc3ccc(O)cc3)c(C(=O)OC(C)C)cnc2n1` showed an RP-LC retention time of 640 s. In the case of `Cc1nn(Cc2nc(-c3ccc(NC(=O)C4CCC4)cc3)oc2C)c(C)c1C` it was 881 s.

Consider `CC(CNC(=O)CN1C(=O)C2CCCCN2c2ccc(S(=O)(=O)N(C)C)cc21)c1ccccc1` (stereo not drawn), for which the RP-LC retention time was 943 s. For `COc1ccccc1C(=O)N1CC(Oc2ccc(-c3nc(-c4ccccc4)no3)cc2)C1` the value was 1160 s; for `CCCc1noc(-c2ccc3nnc(CC(=O)Nc4ccc(F)cc4)n3c2)n1`, 848 s.

`CCn1c(N2CCCC(C(=O)Nc3cc(OC)cc(OC)c3)C2)cc(=O)n(C)c1=O` (stereo not drawn) returned an RP-LC retention time of 829 s. For `CCOc1ccc(NC(=O)c2sc(N3CCCC3=O)nc2CC)cc1` the value was 875 s; for `CCC(=O)N1CCCN(C2=NS(=O)(=O)C(c3ccccc3)=C2C)CC1`, 694 s. `CCOC(=O)c1c(C)[nH]c(C(=O)N2CCC(CC(=O)NCC3CCCO3)CC2)c1C` (stereo not drawn) yielded an RP-LC retention time of 657 s.

The molecule `CC(C)c1ccc(S(=O)(=O)N2CCC3(CC2)c2nccn2CCN3C)cc1` returned an RP-LC retention time of 720 s. In the case of `Cc1cc(N2CCCCCC2)n2nc(CN3CCN(C(C)C)CC3)nc2n1` it was 555 s; in that of `COc1ccc(CNC(=O)C2CN(S(=O)(=O)C3CC3)CC23CCCCC3)c(OC)c1` (stereo not drawn), 815 s; in that of `Cn1nc(C(=O)N2CCCC(C(=O)NC3CC3)C2)c2c1CCN(C(=O)CCc1ccccc1)C2` (stereo not drawn), 671 s.

In the case of `O=C(Nc1ccc2nc(N3CCN(C4CCCCC4)CC3)cc(C(=O)O)c2c1)c1ccccc1Cl`, the RP-LC retention time was 627 s.

For `COc1ccc(C(=O)N2CCC3(CC2)NC(=O)c2cc(F)ccc2N3C)c(OC)c1`, the RP-LC retention time amounted to 734 s. In turn, `CC(NC(=O)C1C(=O)NC2(C)CC1c1ccccc1O2)c1ccccc1` (stereo not drawn) showed an RP-LC retention time of 831 s. In the case of `O=C(NCc1cccnc1)c1ccc(-c2cccs2)nc1` it was 586 s. The molecule `CCOC(=O)c1[nH]c(C)c(CCC(=O)N2CCC(C(=O)NCc3ccc(OC)c(OC)c3)CC2)c1C` yielded an RP-LC retention time of 700 s. For `Cc1[nH]c(C(=O)N2CCCC(C(=O)NCc3ccccc3)C2)c(C)c1C(=O)OC(C)C` (stereo not drawn) the value was 860 s. In the case of `COc1cc(NC(=O)C2c3ccccc3C(=O)N3CCc4ccccc4C23)cc(OC)c1OC` (stereo not drawn) it was 776 s. On to `CCCn1c(=O)c(C)nc2cc(-c3noc(Cc4ccc(OC)c(OC)c4)n3)ccc21`, for which the RP-LC retention time worked out at 930 s. As to `CCN(CC)c1ncc2c(n1)CCC(C(=O)Nc1cccc(C(=O)OC)c1)C2` (stereo not drawn), the RP-LC retention time came to 660 s. In the case of `COC(=O)c1ccc(NC(=O)c2cc(C(C)(C)C)n3nccc3n2)cc1` it was 865 s; in that of `CCOC(=O)c1ccc(NC(=O)C2CCN(C(=O)C3Sc4ccccc4NC3=O)CC2)cc1` (stereo not drawn), 805 s. In the case of `CC(C)c1nc2c(c(=O)n1CC(=O)Nc1ccccc1)CCN(Cc1ccccc1)C2` it was 674 s.

`CCN(CC)C(=O)c1ccc(-n2nc(C)c3c2CCCC3=O)cc1` showed an RP-LC retention time of 691 s. On to `CCOc1ccc(-c2ccc(=O)n(Cc3nc(-c4cccc(OCC)c4)no3)n2)cc1`, for which the RP-LC retention time is 1150 s. For `CC(=O)Nc1ccc(C2(C(=O)NCc3ccccc3Cl)CCC2)cc1` the value was 802 s. For `CCOC(=O)c1nc(N2CCN(c3cc(Cl)ccc3C)CC2)c2ccccc2n1` the value was 1140 s; for `COc1ccc(NC(=O)CN2CCC(C(=O)NCc3ccc(F)cc3F)CC2)c(OC)c1`, 578 s; for `CCCC(=O)NCCc1csc(-c2ccc(Cl)cc2)n1`, 921 s. In turn, `CCC(=O)n1nc(-c2ccc(C)c(C)c2)nc1N` showed an RP-LC retention time of 923 s. In the case of `CC1(C)C(=O)N(CC(=O)Nc2cccc(Cl)c2)c2ccccc21` it was 978 s. For `COc1ccc(C2CNC(=O)C2)cc1OC1CCCC1` (stereo not drawn) the value was 794 s.

Consider `O=C(CN1CC(c2nc(-c3cccnc3)no2)C1)Nc1cc(C(F)(F)F)ccc1Cl`, for which the RP-LC retention time was determined as 634 s. In the case of `CC1Oc2ccc(-c3csc(NC(=O)COc4ccc(Cl)cc4)n3)cc2NC1=O` (stereo not drawn) it was 966 s; in that of `O=C(NCCCN1CCCC1)C1CCN(c2cnc(N3CCCC3)nc2)CC1`, 542 s. `O=C(C1CCCN(c2nc3cccnc3s2)C1)N1CCN(c2ccccc2)CC1` (stereo not drawn) registered an RP-LC retention time of 844 s. For the molecule `O=S(=O)(NCC1Cn2cccc2CN1Cc1ccccc1)c1ccccc1` (stereo not drawn), the RP-LC retention time amounted to 763 s. For `Cc1cc(C)cc(N2CCC(NC(=O)NCc3cccc(F)c3)C2=O)c1` (stereo not drawn) the value was 851 s; for `O=C(CSc1nnc2c3sc(N4CCCC4)nc3ncn12)Nc1ccc(F)cc1`, 794 s. In the case of `CC1CCN(S(=O)(=O)c2cc(C(=O)N3CCN(c4ccc(Cl)cc4)CC3)n(C)c2)CC1` it was 1100 s.
